Source: ChEMBL document CHEMBL5518164, “Membrane-permeable tenofovir-di- and monophosphate analogues” (Eur J Med Chem, 2024)
Active and inactive are the calls of the source. The calls are words filed in the database; no cut-off is given here.

Tests used:
[1] = tested on: Human immunodeficiency virus 1; experiment: Antiviral activity against HIV-1 HE infected in wild type human CEM/0 cells assessed as inhibition of virus-induced giant cell formation incubated for 4 to 5 days by light microscopy; type: functional, organism-based; settings: Human immunodeficiency virus 1, HE, CCRF-CEM
[2] = tested on: Human immunodeficiency virus 2; experiment: Antiviral activity against HIV-2 ROD infected in thymidine kinase deficient human CEM cells assessed as inhibition of virus-induced giant cell formation incubated for 4 to 5 days by light microscopy; type: functional, organism-based; settings: Human immunodeficiency virus 2, ROD, CCRF-CEM
[3] = Half life of the compound in human CEM/0 cell extracts by RP18-HPLC analysis; type: ADME, CCRF-CEM
[4] = Cytotoxicity against human CEM cells assessed as inhibition of cell proliferation; type: toxicity, cell-based, CCRF-CEM
[5] = Lipophilicity of the compound assessed as retention time by RP-HPLC analysis; type: physicochemical
[6] = tested on: Human immunodeficiency virus 2; experiment: Antiviral activity against HIV-2 ROD infected in wild type human CEM/0 cells assessed as inhibition of virus-induced giant cell formation incubated for 4 to 5 days by light microscopy; type: functional, organism-based; settings: Human immunodeficiency virus 2, ROD, CCRF-CEM
[7] = Selectivity index, ratio of CC50 for cytotoxicity against human CEM cells to EC50 for antiviral activity against HIV-2 ROD infected in thymidine kinase deficient human CEM cells; type: toxicity, cell-based; settings: read-out: Ratio CC50/EC50
[8] = Half life of the compound in phosphate buffer saline at pH 7.3 by RP18-HPLC analysis; type: ADME
[9] = Prodrug conversion of the compound in phosphate buffer saline assessed as (R)-9-(2-(phosphonomethoxy)propyl)adenine formation by measuring half life at pH 7.3 by RP18-HPLC analysis; type: ADME
[10] = Half life of the compound in phosphate buffer saline in presence of pig liver esterase at pH 7.3 by RP18-HPLC analysis; type: ADME, Sus scrofa
[11] = tested on: Human immunodeficiency virus; experiment: Substrate activity at HIV reverse transcriptase assessed as n+1 band formation incubated for 30 mins in presence of primer/template mixture and dNTPs by primer extension assay based fluorescence analysis
[12] = Half life of the compound in citrate-containing human plasma by HPLC analysis; type: ADME, cell-free
[13] = Half life of the compound in heparin-stabilized human plasma by HPLC analysis; type: ADME, cell-free
[14] = Prodrug conversion of the compound in phosphate buffer saline assessed as (R)-9-(2-(phosphonomethoxy)propyl)adenine formation by measuring half life in presence of pig liver esterase at pH 7.3 by RP18-HPLC analysis; type: ADME, Sus scrofa

Structure (SMILES) | EC50 [1] [nM] | EC50 [2] [nM] | half-life [3] [h] | CC50 [4] [nM] | Retention_time [5] [min] | EC50 [6] [nM] | selectivity ratio [7] | half-life [8] [h] | t1/2 [9] [h] | half-life [10] [h] | Activity [11] | half-life [12] [h] | half-life [13] [h] | t1/2 [14] [h]
CCCCCCCCCCCCCCCCCCOP(=O)(OCCCCCCCC)OP(=O)(O)OP(=O)(O)CO[C@H](C)Cn1cnc2c(N)ncnc21 (some centres undefined) | 160 | 100 | > 8 | 44700 | 16.6 | 50 | 447 | 207 |  |  |  |  |  | 
CCCCCCCCCCCCCCCCCCOP(=O)(OCc1ccc(OC(=O)CCCCCC)cc1)OP(=O)(O)OP(=O)(O)CO[C@H](C)Cn1cnc2c(N)ncnc21 (some centres undefined) | 6960 | 390 | 1.9 | > 100000 | 18.1 | 10300 | > 256 |  | 111 |  |  |  |  | 
CCCCCCCCCCCC(=O)Oc1ccc(COOP(=O)(O)OP(=O)(O)OP(=O)(O)CO[C@H](C)Cn2cnc3c(N)ncnc32)cc1 | 460 | 300 |  | > 100000 |  | 230 | > 333 |  |  |  |  |  |  | 
CCCCCCCCCCCCOP(=O)(OCCCCCCCCCCCC)OP(=O)(O)OP(=O)(O)CO[C@H](C)Cn1cnc2c(N)ncnc21 | 61 | 65 | > 20 | 44700 | 15.6 | 35 | 688 | 220 |  | > 100 |  |  |  | 
CCCCCCCCCCCCCCCCCCOP(=O)(OCc1ccc(OC(=O)CC)cc1)OP(=O)(O)OP(=O)(O)CO[C@H](C)Cn1cnc2c(N)ncnc21 (some centres undefined) | 390 | 67 | 2.6 | 51100 | 16.8 | 120 | 762 |  | 72 |  |  |  |  | 
CCCCOP(=O)(OCCCC)OP(=O)(O)OP(=O)(O)CO[C@H](C)Cn1cnc2c(N)ncnc21 | 4270 | 2540 |  | > 100000 | 9.7 | 1220 | > 39 | > 1000 |  |  |  |  |  | 
Nc1ncnc2c1ncn2[C@H]1C[C@H](O)[C@@H](COP(=O)(O)OP(=O)(O)OP(=O)(O)O)O1 |  |  |  |  |  |  |  |  |  |  | Active |  |  | 
CC(C)OC(=O)[C@H](C)N[P@](=O)(CO[C@H](C)Cn1cnc2c(N)ncnc21)Oc1ccccc1.CC(C)OC(=O)[C@H](C)N[P@](=O)(CO[C@H](C)Cn1cnc2c(N)ncnc21)Oc1ccccc1.O=C(O)/C=C/C(=O)O [TENOFOVIR ALAFENAMIDE FUMARATE] |  |  |  |  |  |  |  |  |  |  |  | 1.5 | 1.5 | 
CC(C)OC(=O)OCOP(=O)(CO[C@H](C)Cn1cnc2c(N)ncnc21)OCOC(=O)OC(C)C.O=C(O)/C=C/C(=O)O [TENOFOVIR DISOPROXIL FUMARATE] | 13 | 3 |  | > 5000 | 10.1 | 3 | > 1430 | 27.8 |  |  |  | 0.167 | 0.167 | 
CCCCCCCCCCCOP(=O)(OCc1ccc(OC(=O)CCCCCCCC)cc1)OP(=O)(O)OP(=O)(O)CO[C@H](C)Cn1cnc2c(N)ncnc21 (some centres undefined) | 1230 | 540 |  | > 100000 |  | 620 | > 185 |  |  |  |  |  |  | 
CCCCCCCCCCCCCCCCCCOP(=O)(OCc1ccc(OC(=O)CCCCCCCC)cc1)OP(=O)(O)OP(=O)(O)CO[C@H](C)Cn1cnc2c(N)ncnc21 (some centres undefined) | 450 | 310 | 3.5 | > 100000 | 19.1 | 770 | > 322 |  | 24 |  |  |  |  | 2.15
CCCCCCCCCCCCCCCCCCP(=O)(OCCCCCCCC)OP(=O)(O)CO[C@H](C)Cn1cnc2c(N)ncnc21 (some centres undefined) | 73 | 22 | > 8 | 45200 | 20.1 | 32 | 2050 | 26.5 |  |  |  |  |  | 
